Data as given in patent US8063090B2, “Mineralocorticoid receptor modulators” (Merck Sharp & Dohme Corp., priority 2007, dated 2011).
pKi: −log10 of the molar value.

biological target: T1, recombinant rhesus mineralocorticoid receptor (Macaca mulatta, UniProt A0A5F8ATS5); experiment: Mineralocorticoid receptor radioligand ([3H]-aldosterone) filter binding assay; conditions: displacement of [3H]-aldosterone, insect cell lysate, 20° C., read-out: Mineralocorticoid receptor binding affinity Ki
T1 construct: made in house; host or cells: insect cells infected with recombinant baculovirus; clarified cell lysate used
T1 sequence (A0A5F8ATS5 1-984): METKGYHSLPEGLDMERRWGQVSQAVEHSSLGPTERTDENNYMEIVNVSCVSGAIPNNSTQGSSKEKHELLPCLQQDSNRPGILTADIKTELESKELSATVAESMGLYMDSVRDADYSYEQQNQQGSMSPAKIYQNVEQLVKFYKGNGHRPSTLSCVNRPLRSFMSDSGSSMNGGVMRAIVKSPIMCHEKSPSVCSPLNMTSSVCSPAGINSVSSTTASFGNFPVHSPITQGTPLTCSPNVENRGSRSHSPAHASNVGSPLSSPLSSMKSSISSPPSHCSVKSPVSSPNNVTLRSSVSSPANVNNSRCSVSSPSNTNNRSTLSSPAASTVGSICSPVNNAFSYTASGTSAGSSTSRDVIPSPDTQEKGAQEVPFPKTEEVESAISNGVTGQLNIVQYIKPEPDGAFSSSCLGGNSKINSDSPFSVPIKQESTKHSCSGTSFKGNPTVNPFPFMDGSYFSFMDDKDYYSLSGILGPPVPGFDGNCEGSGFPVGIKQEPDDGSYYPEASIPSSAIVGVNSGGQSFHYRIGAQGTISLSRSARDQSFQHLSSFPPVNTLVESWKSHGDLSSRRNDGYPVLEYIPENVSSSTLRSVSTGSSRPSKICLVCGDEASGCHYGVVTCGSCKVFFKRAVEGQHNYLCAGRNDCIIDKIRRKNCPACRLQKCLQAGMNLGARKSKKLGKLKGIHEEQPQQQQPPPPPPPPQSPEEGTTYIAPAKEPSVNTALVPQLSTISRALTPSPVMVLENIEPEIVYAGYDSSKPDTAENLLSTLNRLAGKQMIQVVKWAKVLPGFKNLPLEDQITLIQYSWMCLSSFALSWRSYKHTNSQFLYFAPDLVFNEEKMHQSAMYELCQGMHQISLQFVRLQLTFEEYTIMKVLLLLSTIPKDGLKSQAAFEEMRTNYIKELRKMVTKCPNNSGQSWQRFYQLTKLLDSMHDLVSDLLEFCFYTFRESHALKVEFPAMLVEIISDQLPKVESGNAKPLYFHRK
Method: Measurement of Mineralocorticoid Receptor Binding Affinity
The binding affinity of compounds for the mineralocorticoid receptor was determined by measuring their ability to prevent binding of radiolabeled aldosterone to recombinant rhesus mineralocorticoid receptor in a traditional filter binding assay protocol.
Rhesus mineralocorticoid receptor cDNA was cloned from a cDNA library using and used to prepare a recombinant baculovirus encoding the rhesus mineralocorticoid receptor coding sequence by standard molecular biological and cell biological methods. […] Cells were collected and lysed. The lysates were clarified by centrifugation and stored at −80 C until use in the radioligand binding assay.
The assays were carried out in 20 mM Hepes, 10 mM Na2MoO4, 10 mM 2-mercaptoethanol, 157 mM sucrose, and 3.7 mM CHAPS. [^3H]-Aldosterone (1 mCi/ml, 70-100 Ci/mmol) was purchased from Perkin Elmer (NET419). Test compounds were dissolved in DMSO and diluted in DMSO to 50 times the desired final concentrations for 3-fold serial dilution dose response curves. A working stock solution of [^3H]-aldosterone was prepared by dilution of the commercial stock to 0.083 μM in assay buffer. The insect cell lysate containing rhesus mineralocorticoid receptor was thawed and diluted to 0.7 mg protein/mL. Assay were started by combining 20 μL of test compound solution, 920 μL of diluted insect cell lysate, and 60 μL of [^3H]-aldosterone working solution in 2-mL 96-well polypropylene square well plates (USA Scientific) at 20° C. The mixture was incubated for 3 hr with continuous agitation on a platform shaker. The mixture was then filtered through 96-well GF/B filter plates (Packard) that had been previously treated with a solution of polyethylenimine (Sigma, P-3143). The filter plate was washed 3 times with 0.5 mL of 50 mM Tris-HCl, pH 7.4 and then dried overnight at 37° C. in a vacuum oven. The bottom of the plate was sealed and 40 μL of Microscint-20 (Packard, 6013621) was added to each well before counting radioactivity with a Topcount plate reader. Non-specific radioligand binding was determined by adding non-radiolabeled aldosterone (0.5 mM in DMSO) to the assay mixture to a final concentration of 10 μM in place of test compound. IC50 and Ki values were determined using a four parameter logistic fit using a customized assay data analyzer software package.

| pKi | Compound |
| --- | --- |
| 6.30 | COc1ccc(Br)cc1Cn1ccnc1C(c1ccccc1)c1ccccc1 [Compound 1-17, 1-(5-bromo-2-methoxybenzyl)-2-(diphenylmethyl)-1H-imidazole] |
| 6.53 | CC(c1cc(Cl)cc(Cl)c1)n1ccnc1C(c1ccccc1)c1ccccc1 (stereo not shown) [Compound 1-16, 1-[1-(3,5-dichlorophenyl)ethyl]-2-(diphenylmethyl)-1H-imidazole] |
| 6.02 | c1ccc(Cn2c(C(c3ccccc3)c3ccccc3)nc3ccccc32)cc1 [Compound 2-3, 1-benzyl-2-(diphenylmethyl)-1H-benzimidazole] |
| 5.68 | CC(c1ccccc1)n1c(C(c2ccccc2)c2ccccc2)nc2ccccc21 (stereo not shown) [Compound 2-4, 2-(diphenylmethyl)-1-(1-phenylethyl)-1H-benzimidazole] |
| 6.79 | O=C(Nc1cccc(Cn2ccnc2C(c2ccccc2)c2ccccc2)c1)c1cc(Cl)cc(Cl)c1 [Compound 1-20, 3,5-dichloro-N-(3-{[2-(diphenylmethyl)-1H-imidazol-1-yl]methyl}phenyl)benzamide] |
| 5.95 | Clc1cc2c(cc1Cn1ccnc1C(c1ccccc1)c1ccccc1)OCO2 [Compound 1-18, 1-[(6-chloro-1,3-benzodioxol-5-yl)methyl]-2-(diphenylmethyl)-1H-imidazole] |
| 6.52 | COc1cc(OC)cc(C(=O)Nc2cccc(Cn3ccnc3C(c3ccccc3)c3ccccc3)c2)c1 [Compound 1-19, N-(3-{[2-(diphenylmethyl)-1H-imidazol-1-yl]methyl}phenyl)-3,5-dimethoxybenzamide] |

More lines, now with the values behind:

| Compound | pKi |
| --- | --- |
| CC(c1ccccc1)n1ccnc1C(c1ccccc1)c1ccccc1 (racemic) [Compound 1-5, 2-(diphenylmethyl)-1-(1-phenylethyl)-1H-imidazole] | 5.54 |
| Nc1cccc(Cn2ccnc2C(c2ccccc2)c2ccccc2)c1 [Compound 1-15, 3-{[2-(diphenylmethyl)-1H-imidazol-1-yl]methyl}aniline] | 6.20 |
| FC(F)(F)c1cc(Cn2ccnc2C(c2ccccc2)c2ccccc2)cc(C(F)(F)F)c1 [Compound 1-11, 1-[3,5-bis(trifluoromethyl)benzyl]-2-(diphenylmethyl)-1H-imidazole] | 5.87 |
| FC(F)(F)c1cccc(Cn2ccnc2C(c2ccccc2)c2ccccc2)c1 [Compound 1-8, 2-(diphenylmethyl)-1-[3-(trifluoromethyl)benzyl]-1H-imidazole] | 6.39 |
| Ic1cccc(Cn2ccnc2C(c2ccccc2)c2ccccc2)c1 [Compound 1-12, 2-(diphenylmethyl)-1-(3-iodobenzyl)-1H-imidazole] | 6.54 |
| CC(c1cc(C(F)(F)F)cc(C(F)(F)F)c1)n1ccnc1C(c1ccccc1)c1ccccc1 (stereo not shown) [Compound 1-10, 1-{1-[3,5-bis(trifluoromethyl)phenyl]ethyl}-2-(diphenylmethyl)-1H-imidazole] | 5.96 |
| O=[N+]([O-])c1cccc(Cn2ccnc2C(c2ccccc2)c2ccccc2)c1 [Compound 1-14, 2-(diphenylmethyl)-1-(3-nitrobenzyl)-1H-imidazole] | 6.23 |
| CC(c1cccc(I)c1)n1ccnc1C(c1ccccc1)c1ccccc1 (stereo not shown) [Compound 1-6, 2-(diphenylmethyl)-1-[1-(3-iodophenyl)ethyl]-1H-imidazole] | 5.58 |
| Cc1cccc(Cn2ccnc2C(c2ccccc2)c2ccccc2)c1 [Compound 1-13, 2-(diphenylmethyl)-1-(3-methylbenzyl)-1H-imidazole] | 6.87 |
| COc1ccc(Cn2ccnc2C(c2ccccc2)c2ccccc2)cc1 [Compound 1-7, 2-(diphenylmethyl)-1-(4-methoxybenzyl)-1H-imidazole] | 5.58 |

system: not given; experiment: not given; conditions: in combination with standard CHF therapy, patients suffering from advanced CHF; cited from earlier work

| Compound | reduced cardiac related mortality [%] | reduced frequency of hospitalization [%] |
| --- | --- | --- |
| CC(=O)S[C@@H]1CC2=CC(=O)CC[C@]2(C)[C@H]2CC[C@@]3(C)[C@@H](CC[C@@]34CCC(=O)O4)[C@H]12 [spironolactone] | 30 | 33 |
